The term IC50 denotes the point on the concentration scale where inhibition reaches its midpoint. The low end stands for inhibition by little substance, the high end for a need for much substance.

This is an account of results in ChEMBL document CHEMBL1154559, “New bisindole alkaloids of the topsentin and hamacanthin classes from the Mediterranean marine sponge Rhaphisia lacazei” (J Nat Prod, 2000).

≈ marks a conversion by molar mass, not a printed value.

A short description of this assay: Cytotoxicity against human NSCLC-N6 cells by colorimetric assay. The class given is functional, cell-based.

As to `O=C(c1nc(-c2c[nH]c3cc(Br)ccc23)c[nH]1)c1c[nH]c2cc(O)ccc12` [BROMOTOPSENTIN], the IC50 was determined as 6.3 µg/mL (≈ 15 µM).
The figure for `O=C(c1nc(-c2c[nH]c3ccccc23)c[nH]1)c1c[nH]c2cc(O)ccc12` [TOPSENTIN] is 12 µg/mL (≈ 35.1 µM).
